The structures appear in SMILES notation.

The results in this text go back to US10689354B2, “Aminoazole derivative” (Teijin Pharma Limited, priority 2015, dated 2020).

One assay deals with T1, human androgen receptor (Homo sapiens, UniProt P10275).
T1 construct: expressed in transfected cells; host or cells: HEK293
T1 sequence (P10275 1-920): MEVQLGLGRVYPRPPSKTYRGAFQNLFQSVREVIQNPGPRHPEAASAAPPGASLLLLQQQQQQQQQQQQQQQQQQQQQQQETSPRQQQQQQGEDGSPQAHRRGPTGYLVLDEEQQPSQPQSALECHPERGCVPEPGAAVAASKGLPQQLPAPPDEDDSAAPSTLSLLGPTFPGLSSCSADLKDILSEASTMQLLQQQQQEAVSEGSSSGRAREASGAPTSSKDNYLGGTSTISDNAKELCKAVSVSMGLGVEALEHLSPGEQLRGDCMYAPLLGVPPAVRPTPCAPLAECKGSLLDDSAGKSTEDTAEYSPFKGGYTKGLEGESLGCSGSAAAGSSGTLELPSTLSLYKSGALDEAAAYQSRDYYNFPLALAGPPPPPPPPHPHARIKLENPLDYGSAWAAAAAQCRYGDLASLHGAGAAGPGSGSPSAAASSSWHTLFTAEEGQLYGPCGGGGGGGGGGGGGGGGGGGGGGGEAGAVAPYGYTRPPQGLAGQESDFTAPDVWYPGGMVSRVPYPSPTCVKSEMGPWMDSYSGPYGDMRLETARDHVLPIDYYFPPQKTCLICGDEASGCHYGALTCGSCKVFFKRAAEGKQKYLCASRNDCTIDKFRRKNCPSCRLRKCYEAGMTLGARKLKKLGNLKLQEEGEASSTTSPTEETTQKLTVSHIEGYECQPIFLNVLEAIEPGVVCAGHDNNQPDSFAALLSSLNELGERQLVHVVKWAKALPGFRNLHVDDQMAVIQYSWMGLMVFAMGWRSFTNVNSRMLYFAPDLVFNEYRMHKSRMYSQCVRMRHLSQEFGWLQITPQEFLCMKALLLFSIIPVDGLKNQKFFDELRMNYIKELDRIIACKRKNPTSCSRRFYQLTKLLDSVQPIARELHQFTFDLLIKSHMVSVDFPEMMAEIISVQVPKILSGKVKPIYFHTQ
The assay can be described thus: Reporter assay of an androgen receptor responsive sequence (luciferase, transiently transfected HEK293 cells). To be noted: 24 hours incubation, relative to activity of 100 nM DHT, read-out: AR transcriptive activity (pEC50) (converted). The assay is classed as cell-based. The method in brief:
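Agonism scored as pEC50, fitted by 4-parameter curve against the response to 100 nM DHT, from dual-luciferase readout after 24 h compound treatment. Cells were HEK293 co-transfected (3 h) with human AR expression vector, androgen-responsive firefly reporter and Renilla control, in charcoal-stripped serum.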
A general note: A reporter such as luciferase makes a cellular process visible.

The target of assay [1] is T2, androgen receptor (AR-LBD) (Rattus norvegicus, UniProt P15207).
T2 construct: 5 μL of 2×AR-LBD/Fluoromone AL Red Complex contained in the kit; purchased Invitrogen
T2 sequence (P15207 651-882 limits assumed): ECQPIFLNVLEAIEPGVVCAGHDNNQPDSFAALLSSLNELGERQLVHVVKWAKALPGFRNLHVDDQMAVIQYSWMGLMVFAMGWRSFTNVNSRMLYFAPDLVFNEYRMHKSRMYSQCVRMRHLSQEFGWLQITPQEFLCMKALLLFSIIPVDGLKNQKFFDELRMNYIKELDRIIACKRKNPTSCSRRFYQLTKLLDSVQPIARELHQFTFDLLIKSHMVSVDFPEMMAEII
The assay can be described thus: Evaluation of androgen receptor affinity (PolarScreen Androgen Receptor Competitor Assay Kit, Red; fluorescence polarization). The settings on record: 22° C. for 5 hours, relative to binding rate of 1 μM DHT, read-out: AR affinity (pEC50) (converted). The method in brief:
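Duplicate wells of test compound were mixed with the kit's rat AR-LBD–Fluoromone AL Red tracer complex and left 5 hours at 22 °C before polarization was read. A 4-parameter fit gave pEC50, with binding rate referenced to 1 μM dihydrotestosterone.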

As for `CS(=O)(=O)NC(=O)c1nc(N(Cc2ccccc2Cl)c2ccc(C#N)cc2)sc1Cl` [Example 263, 5-chloro-2-[N-[(2-chlorophenyl)methyl]-4-cyano-anilino]-N-methylsulfonyl-thiazole-4-carboxamide], the EC50 on human androgen receptor is 316 nM; in assay [1], 63.1 nM.
For `COc1cccc(CN(c2ccc(C#N)cc2)c2nc(C(=O)NS(C)(=O)=O)c(Br)s2)c1` [Example 265, 5-bromo-2-[4-cyano-N-[(3-methoxyphenyl)methyl]anilino]-N-methylsulfonyl-thiazole-4-carboxamide] the same measures were 158 nM and 50.1 nM.
Turning to `CS(=O)(=O)NC(=O)c1nc(N(Cc2cccc(Cl)c2)c2ccc(C#N)cc2)sc1Cl` [Example 268, 5-chloro-2-[N-[(3-chlorophenyl)methyl]-4-cyano-anilino]-N-methylsulfonyl-thiazole-4-carboxamide], the figures for the EC50 (at human androgen receptor; in assay [1]) were 63.1 nM and 50.1 nM, respectively.
In the same order, the values of `CS(=O)(=O)NC(=O)c1nc(N(Cc2ccc(Cl)cc2)c2ccc(C#N)cc2)sc1Cl` [Example 269, 5-chloro-2-[N-[(4-chlorophenyl)methyl]-4-cyano-anilino]-N-methylsulfonyl-thiazole-4-carboxamide] are 20 nM and 25.1 nM.
For `COc1ccccc1CN(c1ccc(C#N)cc1)c1nc(C(=O)NS(C)(=O)=O)c(Cl)s1` [Example 270, 5-chloro-2-[4-cyano-N-[(2-methoxyphenyl)methyl]anilino]-N-methylsulfonyl-thiazole-4-carboxamide], the figures for the EC50 (at human androgen receptor; in assay [1]) were 251 nM and 79.4 nM, respectively.
For `COc1ccc(CN(c2ccc(C#N)cc2)c2nc(C(=O)NS(C)(=O)=O)c(Cl)s2)cc1` [Example 271, 5-chloro-2-[4-cyano-N-[(4-methoxyphenyl)methyl]anilino]-N-methylsulfonyl-thiazole-4-carboxamide] the same measures were 50.1 nM and 79.4 nM.
Take `CS(=O)(=O)NC(=O)c1nc(N(Cc2ccc(C(F)(F)F)cc2)c2ccc(C#N)cc2)sc1Cl` [Example 272, 5-chloro-2-[4-cyano-N-[[4-(trifluoromethyl)phenyl]methyl]anilino]-N-methylsulfonyl-thiazole-4-carboxamide]: the results for the EC50 (on human androgen receptor; in assay [1]) were 25.1 nM and 31.6 nM, respectively.
For `CS(=O)(=O)NC(=O)c1nc(N(Cc2cccc(OC(F)(F)F)c2)c2ccc(C#N)cc2)sc1Cl` [Example 273, 5-chloro-2-[4-cyano-N-[[3-(trifluoromethoxy)phenyl]methyl]anilino]-N-methylsulfonyl-thiazole-4-carboxamide] the same measures were 63.1 nM and 31.6 nM.
Take `CS(=O)(=O)NC(=O)c1nc(N(Cc2ccc(OC(F)(F)F)cc2)c2ccc(C#N)cc2)sc1Cl` [Example 274, 5-chloro-2-[4-cyano-N-[[4-(trifluoromethoxy)phenyl]methyl]anilino]-N-methylsulfonyl-thiazole-4-carboxamide]: the EC50 on human androgen receptor was 79.4 nM; in assay [1], 39.8 nM.
Take `CS(=O)(=O)NC(=O)c1nc(N(Cc2ccccc2OC(F)F)c2ccc(C#N)cc2)sc1Cl` [Example 275, 5-chloro-2-[4-cyano-N-[[2-(difluoromethoxy)phenyl]methyl]anilino]-N-methylsulfonyl-thiazole-4-carboxamide]: the figures for the EC50 (at human androgen receptor; in assay [1]) were 316 nM and 63.1 nM, respectively.
`CS(=O)(=O)NC(=O)c1nc(N(Cc2cccc(OC(F)F)c2)c2ccc(C#N)cc2)sc1Cl` [Example 276, 5-chloro-2-[4-cyano-N-[[3-(difluoromethoxy)phenyl]methyl]anilino]-N-methylsulfonyl-thiazole-4-carboxamide]: the results for the EC50 (at human androgen receptor; in assay [1]) were 126 nM and 50.1 nM, respectively.
For `CS(=O)(=O)NC(=O)c1nc(N(Cc2ccc(OC(F)F)cc2)c2ccc(C#N)cc2)sc1Cl` [Example 277, 5-chloro-2-[4-cyano-N-[[4-(difluoromethoxy)phenyl]methyl]anilino]-N-methylsulfonyl-thiazole-4-carboxamide] the same measures were 50.1 nM and 63.1 nM.
As for `CS(=O)(=O)NC(=O)c1nc(N(Cc2ccc3occc3c2)c2ccc(C#N)cc2)sc1Cl` [Example 279, 2-[N-(benzofuran-5-ylmethyl)-4-cyano-anilino]-5-chloro-N-methylsulfonyl-thiazole-4-carboxamide], the figures for the EC50 (at human androgen receptor; in assay [1]) were 50.1 nM and 31.6 nM, respectively.
`CS(=O)(=O)NC(=O)c1nc(N(Cc2cc3ccccc3s2)c2ccc(C#N)cc2)sc1Cl` [Example 280, 2-[N-(benzothiophen-2-ylmethyl)-4-cyano-anilino]-5-chloro-N-methylsulfonyl-thiazole-4-carboxamide]: the EC50 was 25.1 nM on human androgen receptor and 50.1 nM in assay [1].
As for `Cc1nc(CN(c2ccc(C#N)cc2)c2nc(C(=O)NS(C)(=O)=O)c(Br)s2)cs1` [Example 281, 5-bromo-2-[4-cyano-N-[(2-methylthiazol-4-yl)methyl]anilino]-N-methylsulfonyl-thiazole-4-carboxamide], the EC50 is 631 nM at human androgen receptor and 398 nM in assay [1].
Consider `CS(=O)(=O)NC(=O)c1nc(N(Cc2ccc(F)cc2)c2ccc(C(F)(F)F)nc2)sc1Br` [Example 282, 5-bromo-2-[(4-fluorophenyl)methyl-[6-(trifluoromethyl)-3-pyridyl]amino]-N-methylsulfonyl-thiazole-4-carboxamide], for which the values for the EC50 (on human androgen receptor; in assay [1]) were 316 nM and 39.8 nM, respectively.
For the compound `COCCCS(=O)(=O)NC(=O)c1nc(N(Cc2ccc(Cl)cn2)c2ccc(C#N)cc2)sc1C1CC1` [Example 283, 2-[N-[(5-chloro-2-pyridyl)methyl]-4-cyano-anilino]-5-cyclopropyl-N-(3-methoxypropylsulfonyl)thiazole-4-carboxamide], the EC50 is more than 10000 nM at human androgen receptor and 200 nM in assay [1].
For `CS(=O)(=O)NC(=O)c1nc(N(Cc2ccccc2)c2ccc(C#N)cc2)sc1C(F)F` [Example 284, 2-(N-benzyl-4-cyano-anilino)-5-(difluoromethyl)-N-methylsulfonyl-thiazole-4-carboxamide] the same measures were more than 10000 nM and 126 nM.
In the same order, the values of `Cc1oc(N(Cc2ccc(Br)cc2)c2ccc(C#N)cc2)nc1C(=O)NS(C)(=O)=O` [Example 285, 2-[N-[(4-bromophenyl)methyl]-4-cyano-anilino]-5-methyl-N-methylsulfonyl-oxazole-4-carboxamide] are 200 nM and 50.1 nM.
For `Cc1oc(N(Cc2ccc(Cl)cc2)c2ccc(C#N)cc2)nc1C(=O)NS(C)(=O)=O` [Example 286, 2-[N-[(4-chlorophenyl)methyl]-4-cyano-anilino]-5-methyl-N-methylsulfonyl-oxazole-4-carboxamide] the same measures were 316 nM and 501 nM.
For the compound `Cc1sc(N(CCc2ccccc2)Cc2ccccc2)nc1C(=O)NS(C)(=O)=O` [Example 294, 2-[benzyl(2-phenylethyl)amino]-5-methyl-N-methylsulfonyl-thiazole-4-carboxamide], the EC50 on human androgen receptor is 1000 nM; in assay [1], 100 nM.
In the case of `Cc1sc(N(CCC2CCCCC2)Cc2ccccc2)nc1C(=O)NS(C)(=O)=O` [Example 298, 2-[benzyl(2-cyclohexylethyl)amino]-5-methyl-N-methylsulfonyl-thiazole-4-carboxamide], the values for the EC50 (on human androgen receptor; in assay [1]) were more than 10000 nM and 100 nM, respectively.
As to `Cc1sc(N(CCc2ccc(Cl)cc2)Cc2ccccc2)nc1C(=O)NS(C)(=O)=O` [Example 299, 2-[benzyl-[2-(4-chlorophenyl)ethyl]amino]-5-methyl-N-methylsulfonyl-thiazole-4-carboxamide], the results for the EC50 (at human androgen receptor; in assay [1]) were 126 nM and 31.6 nM, respectively.
